Experiment [1] deals with T98G cells. As to the kind of experiment: Cell proliferation inhibition assay, T98G, CellCounting-Lite 2.0 (Example 1). To be noted: for IC50: Homo sapiens, T98G, 72 hours of drug treatment. The class given is cell-based, human. Here is the method: T98G cells were stably passaged twice. When the cell density reached above 85%, the cells were digested with 0.05% trypsin-EDTA for 3 minutes, resuspended, plated in a 96-well plate at the corresponding density, and cultured for 24 hours. The cells were treated with drugs at final concentrations of the culture system of 0.41 μM, 1.23 μM, 3.7 μM, 11.1 μM, 33.3 μM, and 100 μM, respectively. After 72 hours of drug treatment, cell viability was determined using CellCounting-Lite™ 2.0 kit. The plate was added with reagents at 100 µL/well according to the CellCounting-Lite™ 2.0 kit instructions, and shaken for 10 minutes. The luminescence value (LUM) as read on a multi-function plate reader, and the relative viability of the cells was calculated.
Relative viability of tumor cells V (%)=(LUM-LUMbackground)/(LUMnormal control−LUMbackground)×100%. LUMbackground was the background reading of the complete culture medium well added with the detection reagent. The half inhibitory concentration (IC50) was calculated using GraphPad Prism 8.0.1 statistical software.

Experiment [2] relates to T98G cells. The experiment can be described thus: Vacuolation induction in T98G cells (Example 1). To be noted: for Vacuolation rate (%): 6 hours, mean±SD; for Induction of vacuolation in T98 cells: FIG. 1 and Table 1. The class given is cell-based, human. As to the method: T98G cells were stably passaged twice. When the cell density reached more than 85%, the cells were digested with 0.05% trypsin-EDTA for 3 minutes, resuspended with the culture medium, and plated in a 12-well plate at a certain density, with each well system being 1 mL. The cells were cultured for 24 hours, and added with the compound solution prepared above to each well according to the grouping, so that the concentrations of the compounds in the culture system were respectively 5 μM, 10 μM, 20 μM, 40 μM, and 60 μM. An equal volume of DMSO was added as a control well.
After 6 hours of drug treatment, the plates were observed under a microscope with a 20× objective lens, and five fields of view were randomly selected for each well to take photos and record. If in the observed field of view, bright vacuoles with clear border appeared in the cell, and at least one of the following conditions was met: 1) a cell contained at least 1 vacuole with a diameter greater than 3 μm; 2) a cell contained 3 or more vacuoles with a diameter within the range of 0.5-3 μm, the cell was considered to be methuosis-positive cells.
Among them, CELL positive: the number of methuosis-positive cells; CELL normal: the number of cells with normal morphology

The subject of experiment [3] is human glioma cell line T98G. The settings on record: single drug, maximum drug concentration of 20 M, 6 hours. As to the method: T98G cells were stably passaged twice. […] The cells were cultured for 24 hours, and added with the compound solution prepared above to each well according to the grouping, such that the compound concentrations in the culture system were 0.1 M, 1 M, 5 μM, and 20 M, respectively. An equal volume of DMSO was added as a control well.
If bright vacuoles with clear border appeared in the observed field of view, and at least one of the following conditions was met: 1) a cell contained at least one vacuole with a diameter greater than 3 μm; 2) a cell contained 3 or more vacuoles with a diameter within the range of 0.5-3 μm; the cell was considered as a methuosis-positive cell.

Experiment [4] has as its system U87MG-Luc glioblastoma cell in situ transplantation tumor. As to the kind of experiment: S2 combined with TMZ in U87MG-Luc glioblastoma in situ transplantation tumor model in nude mice (Example 5). The settings on record: TMZ 3 mg/kg.
Experimental: Before the transplantation, the U87MG-Luc cells were digested with 0.05%-trypsin-EDTA, resuspended with pre-cooled PBS to 4×10^7 cells/mL, and transferred to ice for later use. The nude mice were anesthetized with isoflurane gas, and then fixed on a stereotaxic machine in a prone position. The scalp of the nude mouse was disinfected with iodophor, and incised sagittally with a scalpel. The incision was cleaned with iodophor. The skull was exposed, and drilled with a skull drill extending 1.0 mm in front of the bregma and deviating the right side 2.0 mm. 5 μL of cell suspension (2×10^5 cells) was manually injected with a 10 μL flat-head microsyringe, with inserting the needle to a depth of 3.5 mm, withdrawing the needle 0.5 mm, and injecting for about 10 minutes. […]
On days 7, 14, and 21 after the transplantation, 200 μL of 15 mg/mL D-luciferin potassium salt solution, which was filtered and sterilized through a 0.22 μm filter, was injected intraperitoneally. […] Luorescence intensity was analyzed using Living Image software to obtain fluorescence intensity [p/s], which reflected the size of tumor tissue in the brain of experimental animals.
The survival conditions of experimental animals were monitored, and the animals' death dates were recorded timely.
Quantitative data are expressed as mean±standard error. […]

From patent US20250057832A1, “USE OF A CLASS OF 1,4-DIHYDRO-NAPHTHYRIDINE DERIVATIVES IN TREATMENT OF TUMORS” (NEURODAWN PHARMACEUTICAL CO., LTD., priority 2021, published 2025) come the findings set out here.

One may read the IC50 as the concentration that inhibits the measured activity by half. High values mean lower potency, low ones higher potency.

For `CCOC(=O)C1=C(C)Nc2nc3c(c(N)c2[C@@H]1c1ccccc1Cl)CC(C)(C)CC3` [(+)-S2], in experiment [1], the IC50 worked out at 5.3 µM. Besides, the “Vacuolation rate (%)” value in experiment [2] (5 μM) came out at 1.3 ± 1.6%; in experiment [2] (10 μM), 10.0 ± 4.2%; in experiment [2] (20 μM) it was 69.3 ± 6.9%. Also, the “Induction of vacuolation in T98 cells” value in experiment [2] was “can induce vacuolation”.

Regarding `COCCOC(=O)C1=C(C)Nc2nc3c(c(N)c2C1c1ccccc1Cl)CC(C)(C)CC3` (stereo not drawn) [Compound S5], half-maximal inhibition in experiment [1] (IC50) was put at 4.5 µM. Further, the figures for the “Vacuolation rate (%)” value in experiment [2] (5 μM), in experiment [2] (10 μM) and in experiment [2] (20 μM) were 1.4 ± 1.4%, 10.7 ± 0.90% and 35.1 ± 1.3%, respectively. The “Induction of vacuolation in T98 cells” value in experiment [2] is recorded as “can induce vacuolation”.

As for `Fc1ccc(C(c2ccc(F)cc2)N2CCN(C/C=C/c3ccccc3)CC2)cc1` [flunarizine], the “Induction of vacuolated cell phenotype” value in experiment [3] was “None of calcium channel inhibitors nifedipine, verapamil, diltiazem, and flunarizine with a maximum drug concentration of 20 M could induce a vacuolated cell phenotype”.

`C=CCOC(=O)C1=C(C)Nc2nc3c(c(N)c2C1c1cccc(F)c1)CC(C)(C)CC3` (stereo not drawn) [Compound S3] registered an IC50 in experiment [1] of 7 µM. Moreover, the “Vacuolation rate (%)” value turned out to be 1.1 ± 1.5% in experiment [2] (5 μM), 5.34 ± 1.2% in experiment [2] (10 μM), 9.04 ± 3.8% in experiment [2] (20 μM) and 57.4 ± 13.9% in experiment [2] (40 μM). Besides, the “Induction of vacuolation in T98 cells” value in experiment [2] is given as “can induce vacuolation”.

On to `CC1=C(C(=O)OC(C)C)C(c2cccc(F)c2)c2c(nc3c(c2N)CC(C)(C)CC3)N1` (stereo not drawn) [Compound S6], for which the IC50 in experiment [1] worked out at 20.5 µM. Also, the “Vacuolation rate (%)” value is recorded as 0.00% in experiment [2] (5 μM), 10.5 ± 1.6% in experiment [2] (10 μM), 15.3 ± 1.3% in experiment [2] (20 μM) and 52.3 ± 2.5% in experiment [2] (40 μM). The “Induction of vacuolation in T98 cells” value in experiment [2] is “can induce vacuolation”.

Consider `COc1ccc([C@@H]2Sc3ccccc3N(CCN(C)C)C(=O)[C@@H]2OC(C)=O)cc1` [diltiazem], for which the “Induction of vacuolated cell phenotype” value in experiment [3] is “None of calcium channel inhibitors nifedipine, verapamil, diltiazem, and flunarizine with a maximum drug concentration of 20 M could induce a vacuolated cell phenotype”.

Take `C#CCOC(=O)C1=C(C)Nc2nc3c(c(N)c2C1c1cccc(F)c1)CC(C)(C)CC3` (stereo not drawn) [Compound S4]: in experiment [1], the IC50 is 12.7 µM. Besides, the “Vacuolation rate (%)” value in experiment [2] (5 μM) is reported as 0.6 ± 1.4%; in experiment [2] (10 μM), 5.0 ± 1.3%; in experiment [2] (20 μM), 10.43 ± 1.0%; in experiment [2] (40 μM) it was 76.9 ± 12.1%. For the same compound, in experiment [2], the “Induction of vacuolation in T98 cells” value was “can induce vacuolation”.

As to `Cn1nnc2c(C(N)=O)ncn2c1=O` [TMZ, Temozolomide], the “Median survival period” value in experiment [4] (vehicle 30) is reported as 33.5 days. Also, the “Overall survival period” value in experiment [4] (vehicle 33) was determined as 35 days.

For `CCOC(=O)C1=C(C)Nc2nc3c(c(N)c2C1c1ccccc1)CCCC3` (stereo not drawn) [Compound S1], the “Proliferation inhibitory activity on T98G (in words)” value in experiment [1] (72 hours) was “weak”. Further, in experiment [1], inhibition was half-maximal at 47.8 µM (IC50). Also, in experiment [2], the “Rank of vacuolation-inducing activity among the derivatives” value was “weakest vacuolation-inducing activity”. In addition, the “Vacuolation rate (%)” value worked out at 0.0% in experiment [2] (5 μM), 0.3 ± 0.6% in experiment [2] (10 μM), 2.23 ± 0.5% in experiment [2] (20 μM) and 10.0 ± 5.6% in experiment [2] (40 μM). For the same compound, in experiment [2], the “Induction of vacuolation in T98 cells” value is “can induce vacuolation”.

For the compound `CCOC(=O)C1=C(C)Nc2nc3c(c(N)c2[C@H]1c1ccccc1Cl)CC(C)(C)CC3` [(−)-S2], the IC50 in experiment [1] is 9.8 µM. Further, the entries for the “Vacuolation rate (%)” value in experiment [2] (5 μM), in experiment [2] (10 μM) and in experiment [2] (20 μM) were 1.2 ± 1.7%, 21.9 ± 9.0% and 96.47 ± 2.4%, respectively. In addition, the “Induction of vacuolation in T98 cells” value in experiment [2] is “can induce vacuolation”.
